Measurements reported in PubChem BioAssay AID1918952 (Molecular Pharmacology Branch, DTP, NCI, 2023).

System: LG0703-F948-PDC complex spheroid viability
Experiment: Anticancer human tumor LG0703-F948-PDC patient-derived lung adenocarcinoma cell line growth inhibition
Settings: for IC50: curve of first compound; for viability, T/C: stronger effect = lower value
Outline: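 Drug combinations with the LSD1 inhibitor iadademstat tested on tumor cells co-cultured as spheroids with endothelial cells and mesenchymal stem cells. Concentrations descended in half-log increments from clinical Cmax or 10 microM.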

[1] = second compound 0.1 µM, first compound 0.00316 µM
[2] = second compound 0.1 µM, first compound 0.01 µM
[3] = second compound 0.1 µM, first compound 0.0316 µM
[4] = second compound 0.1 µM, first compound 0.1 µM
[5] = second compound 0.316 µM, first compound 0.00316 µM
[6] = second compound 0.316 µM, first compound 0.01 µM
[7] = second compound 0.316 µM, first compound 0.0316 µM
[8] = second compound 0.316 µM, first compound 0.1 µM
[9] = second compound 1 µM, first compound 0.00316 µM
[10] = second compound 1 µM, first compound 0.01 µM
[11] = second compound 1 µM, first compound 0.0316 µM
[12] = second compound 1 µM, first compound 0.1 µM
[13] = second compound 3.16 µM, first compound 0.00316 µM
[14] = second compound 3.16 µM, first compound 0.01 µM
[15] = second compound 3.16 µM, first compound 0.0316 µM
[16] = second compound 3.16 µM, first compound 0.1 µM
[17] = second compound 10 µM, first compound 0.00316 µM
[18] = second compound 10 µM, first compound 0.01 µM
[19] = second compound 10 µM, first compound 0.0316 µM
[20] = second compound 10 µM, first compound 0.1 µM
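Note: spheroids exposed to agents for seven days before readout.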
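Throughout, for viability, T/C: 100% = DMSO vehicle control wells as normalization base.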

COc1cc(Nc2ncc3c(n2)-c2ccc(Cl)cc2C(c2c(F)cccc2OC)=NC3)ccc1C(=O)O + NC1CCC(NC2CC2c2ccccc2)CC1
IC50 (second compound 0.1 µM): 218 nM
IC50 (second compound 0.316 µM): 172 nM
IC50 (second compound 1 µM): 201 nM
IC50 (second compound 3.16 µM): 229 nM
IC50 (second compound 10 µM): 229 nM
viability, T/C [1]: 87.8%
viability, T/C [2]: 80.6%
viability, T/C [3]: 81.6%
viability, T/C [4]: 73.5%
viability, T/C (second compound 0.1 µM, first compound 0.316 µM): 38.9%
viability, T/C (second compound 0.1 µM, first compound 1 µM): 6.3%
viability, T/C [5]: 96.4%
viability, T/C [6]: 86.7%
viability, T/C [7]: 79.8%
viability, T/C [8]: 61.6%
viability, T/C (second compound 0.316 µM, first compound 0.316 µM): 36.6%
viability, T/C (second compound 0.316 µM, first compound 1 µM): 5.23%
viability, T/C [9]: 104%
viability, T/C [10]: 87.6%
viability, T/C [11]: 91.4%
viability, T/C [12]: 71%
viability, T/C (second compound 1 µM, first compound 0.316 µM): 36.2%
viability, T/C (second compound 1 µM, first compound 1 µM): 5.15%
viability, T/C [13]: 110%
viability, T/C [14]: 94.1%
viability, T/C [15]: 94.4%
viability, T/C [16]: 83.7%
viability, T/C (second compound 3.16 µM, first compound 0.316 µM): 36.9%
viability, T/C (second compound 3.16 µM, first compound 1 µM): 4.29%
viability, T/C [17]: 108%
viability, T/C [18]: 85.3%
viability, T/C [19]: 89.9%
viability, T/C [20]: 83.7%
viability, T/C (second compound 10 µM, first compound 0.316 µM): 37.1%
viability, T/C (second compound 10 µM, first compound 1 µM): 2.91%

Cn1ncnc1C1c2n[nH]c(=O)c3cc(F)cc(c23)NC1c1ccc(F)cc1 (stereo not given) + NC1CCC(NC2CC2c2ccccc2)CC1
IC50 (second compound 0.1 µM): > 100 nM
IC50 (second compound 0.316 µM): > 100 nM
IC50 (second compound 1 µM): > 100 nM
IC50 (second compound 3.16 µM): > 100 nM
IC50 (second compound 10 µM): > 100 nM
viability, T/C (second compound 0.1 µM, first compound 0.000316 µM): 102%
viability, T/C (second compound 0.1 µM, first compound 0.001 µM): 96.2%
viability, T/C [1]: 93.1%
viability, T/C [2]: 104%
viability, T/C [3]: 88.4%
viability, T/C [4]: 97.8%
viability, T/C (second compound 0.316 µM, first compound 0.000316 µM): 111%
viability, T/C (second compound 0.316 µM, first compound 0.001 µM): 108%
viability, T/C [5]: 95.8%
viability, T/C [6]: 113%
viability, T/C [7]: 93.1%
viability, T/C [8]: 96.9%
viability, T/C (second compound 1 µM, first compound 0.000316 µM): 113%
viability, T/C (second compound 1 µM, first compound 0.001 µM): 128%
viability, T/C [9]: 116%
viability, T/C [10]: 111%
viability, T/C [11]: 115%
viability, T/C [12]: 97.7%
viability, T/C (second compound 3.16 µM, first compound 0.000316 µM): 122%
viability, T/C (second compound 3.16 µM, first compound 0.001 µM): 133%
viability, T/C [13]: 115%
viability, T/C [14]: 123%
viability, T/C [15]: 117%
viability, T/C [16]: 122%
viability, T/C (second compound 10 µM, first compound 0.000316 µM): 108%
viability, T/C (second compound 10 µM, first compound 0.001 µM): 123%
viability, T/C [17]: 115%
viability, T/C [18]: 117%
viability, T/C [19]: 111%
viability, T/C [20]: 121%

NS(=O)(=O)OCC1CC(n2ccc3c(NC4CCc5ccccc54)ncnc32)CC1O (stereo not given) + NC1CCC(NC2CC2c2ccccc2)CC1
IC50 (second compound 0.1 µM): 546 nM
IC50 (second compound 0.316 µM): 607 nM
IC50 (second compound 1 µM): 670 nM
IC50 (second compound 3.16 µM): 633 nM
IC50 (second compound 10 µM): 467 nM
viability, T/C (second compound 0.1 µM, first compound 0.00949 µM): 106%
viability, T/C (second compound 0.1 µM, first compound 0.03 µM): 111%
viability, T/C (second compound 0.1 µM, first compound 0.0949 µM): 106%
viability, T/C (second compound 0.1 µM, first compound 0.3 µM): 70.7%
viability, T/C (second compound 0.1 µM, first compound 0.949 µM): 31.4%
viability, T/C (second compound 0.1 µM, first compound 3 µM): 19.1%
viability, T/C (second compound 0.316 µM, first compound 0.00949 µM): 111%
viability, T/C (second compound 0.316 µM, first compound 0.03 µM): 123%
viability, T/C (second compound 0.316 µM, first compound 0.0949 µM): 109%
viability, T/C (second compound 0.316 µM, first compound 0.3 µM): 80.5%
viability, T/C (second compound 0.316 µM, first compound 0.949 µM): 30.7%
viability, T/C (second compound 0.316 µM, first compound 3 µM): 17.1%
viability, T/C (second compound 1 µM, first compound 0.00949 µM): 113%
viability, T/C (second compound 1 µM, first compound 0.03 µM): 144%
viability, T/C (second compound 1 µM, first compound 0.0949 µM): 105%
viability, T/C (second compound 1 µM, first compound 0.3 µM): 83.3%
viability, T/C (second compound 1 µM, first compound 0.949 µM): 35.9%
viability, T/C (second compound 1 µM, first compound 3 µM): 16.2%
viability, T/C (second compound 3.16 µM, first compound 0.00949 µM): 124%
viability, T/C (second compound 3.16 µM, first compound 0.03 µM): 141%
viability, T/C (second compound 3.16 µM, first compound 0.0949 µM): 112%
viability, T/C (second compound 3.16 µM, first compound 0.3 µM): 82.5%
viability, T/C (second compound 3.16 µM, first compound 0.949 µM): 32.4%
viability, T/C (second compound 3.16 µM, first compound 3 µM): 13.6%
viability, T/C (second compound 10 µM, first compound 0.00949 µM): 124%
viability, T/C (second compound 10 µM, first compound 0.03 µM): 124%
viability, T/C (second compound 10 µM, first compound 0.0949 µM): 124%
viability, T/C (second compound 10 µM, first compound 0.3 µM): 69.3%
viability, T/C (second compound 10 µM, first compound 0.949 µM): 20.4%
viability, T/C (second compound 10 µM, first compound 3 µM): 8.21%
